Source: US10238623B2, “C14-hydroxyl esterified amino acid derivative of triptolide, and preparation method and use thereof” (HANGZHOU WEBEN PHARMACEUTICALS INC, priority 2015, dated 2019)
Where “and” joins values, the source holds several entries; their conditions need not be identical. Equal values may be shown once.

Tests used:
Sup-B15 = assay: MTT growth inhibition, Sup-B15 cells, 72 h; format: cell-based, human
Procedure: 5000 well-grown leukemia cells or normal human blood cells were taken and seeded into wells of a 96-well cell culture plate. The medium was 1640 cell medium containing 10% fetal bovine serum. 14-D-Valine-TPL with different concentrations was added, and after being uniformly mixed, the plate was placed in a carbon dioxide (5% CO2) cell incubator, and incubated at 37° C. for 72 hours. The concentration of live cells was then determined using the MTT assay. In this experiment, the cell viability in the control group (without the compound treatment) was set to be 100%, and the cell viability (%) after the action of the compound the half maximal growth inhibitory concentration of leukemia cells at 72 hours (IC50 value at 72 hours) and the therapeutic window index were calculated. Therapeutic window index=IC50 value of normal blood cells/IC50 value of leukemia cells. […] A larger therapeutic window indicates a better selectivity of the compound for tumor cells.
(§1) 5000 well-grown leukemia cells were taken and seeded into wells of a 96-well cell culture plate. The medium was 1640 cell medium containing 10% fetal bovine serum. 14-D-Valine-TPL with different concentrations was added, and after being uniformly mixed, the plate was placed in a carbon dioxide (5% CO2) cell incubator, and incubated at 37° C. for 72 hours. The concentration of live cells was then determined using the MTT assay. In this experiment, the cell viability in the control group (without the compound treatment) was set to be 100%, and the cell viability (%) after the action of the compound and the half maximal growth inhibitory concentration of leukemia cells at 72 hours (IC50 value at 72 hours) were calculated.
as §1, with “well-grown lymphocytes” for “well-grown leukemia cells”

KG-1 = assay: MTT growth inhibition, KG-1 cells, 72 h; format: cell-based; settings: Homo sapiens, KG-1, MTT
Procedure: as §1

KG-1a = assay: MTT growth inhibition, KG-1a cells, 72 h; format: cell-based; settings: Homo sapiens
Procedure: as §1

THP-1 = assay: MTT growth inhibition, THP-1 cells, 72 h; format: cell-based; settings: Homo sapiens, THP-1, MTT
Procedure: as §1

[1] = Body weight and organ examination of tumour-bearing mice; format: in vivo, NOD/SCID mice; settings: for Body weight: mice bearing KG-1a and THP-1, 14 days, individual mice, listed as DV
Procedure: (§2) 7-week old female NOD/SCID mice were taken and inoculated subcutaneously with 1×10^7 cells (0.2 ml) per mouse in axilla, with human acute myelogenous leukemia KG-1a cells on the left and human acute monocytic leukemia THP-1 cells on the right. When tumors grew to a tumor size of around 0.5 cm, the mice were randomized into groups with 3 mice each. An equivalent amount of PBS was used for the control group, and the 14-D-Valine-TPL group was divided into two groups with 0.2 mg/kg body weight and 0.4 mg/kg body weight: intragastric administration 2 times a day (one at 8 a.m. and one at 4 p.m.) for consecutive 14 days of treatment. An observation was made for total 30 days, during which the conditions of the mice such as tumor size, weight, activity, diet, and the like were measured. At the end of the experiment, the mice were sacrificed, tumor tissues were taken and the tumors were weighed, and major organs and tissues of the mice such as liver, spleen, heart, lung, large intestine, small intestine, and the like were examined.
as §2, with “the left.” for “the left and human acute monocytic leukemia THP-1 cells on the right.”, “around 50-100 mm^3,” for “around 0.5 cm,”, “the TPL-LLV” for “the 14-D-Valine-TPL”, “with 0.23” for “with 0.2”, “and 0.46” for “and 0.4”, “intragastric administration,” for “intragastric administration”
as §2, with “the left.” for “the left and human acute monocytic leukemia THP-1 cells on the right.”, “around 50-100 mm^3,” for “around 0.5 cm,”, “the TPL-DLV” for “the 14-D-Valine-TPL”, “with 0.23” for “with 0.2”, “and 0.46” for “and 0.4”, “intragastric administration,” for “intragastric administration”
7-week old female NOD/SCID mice were taken and inoculated subcutaneously with 1×10^7 cells (0.2 ml) per mouse in axilla, with human acute myelogenous leukemia KG-1a cells on the left. When tumors grew to a tumor size of around 50-100 mm^3, the mice were randomized into groups with 3 mice each. An equivalent amount of PBS was used for the control group, and the TPL-DLV group was divided into two groups with 0.32 mg/kg body weight and 0.64 mg/kg body weight: intragastric administration, 2 times a day (one at 8 a.m. and one at 4 p.m.) for consecutive 14 days of treatment. An observation was made for total 30 days, during which the conditions of the mice such as tumor size, weight, activity, diet, and the like were measured. At the end of the experiment, the mice were sacrificed, tumor tissues were taken and the tumors were weighed, and major organs and tissues of the mice such as liver, spleen, heart, lung, large intestine, small intestine, and the like were examined. […]

c-myc = assay: Immunoblot of c-myc level in K562 cells, 48 h; format: cell-based, human; settings: 80 nM
Procedure: Well-grown leukemia cells were taken and seeded into wells of a 6-well cell culture plate, with a density of 1×10^6/ml. The medium was 1640 cell medium containing 10% fetal bovine serum. 14-D-Valine-TPL with different concentrations was added, and after being uniformly mixed, the plate was placed in a carbon dioxide (5% CO2) cell incubator, and incubated at 37° C. for 48 hours. Cellular proteins were then extracted, and the immunoblot technique was used to detect the expression level of c-myc.

In the case of `CC(C)[C@@H](N)C(=O)O[C@@H]1[C@@]2(C(C)C)O[C@H]2[C@@H]2O[C@]23[C@]12O[C@H]2C[C@H]1C2=C(CC[C@@]13C)C(=O)OC2` [14-D-Valine-TPL, 14-Dextro-Valine-Triptolide], the IC50 (Sup-B15; Homo sapiens, SUP-B15, 72 h) is reported as 0.0207 µM, the Therapeutic window (Sup-B15; IC50 of normal blood cells/IC50 of Sup-B15) is reported as 9.73 and the IC50 (KG-1) is reported as 0.049 µM. For the same compound, the IC50 (KG-1a) was 0.031 µM, the IC50 (THP-1) was 0.016 µM and the “weight loss in the mice (in words)” value ([1]; dose of 0.4 mg per kilogram of the body weight) was “no significant weight losses”. The Body weight ([1]; 0.2 mg/kg intragastric 2 times a day, mice bearing KG-1a xenografts) was 18.5 g and 20.2 g and 19.9 g and 18.1 g and 19.0 g and 20.4 g, the Body weight ([1]; 0.2 mg/kg intragastric 2 times a day, mice bearing THP-1 xenografts) was 18.5 g and 20.2 g and 19.9 g and 18.1 g and 19.0 g and 20.4 g and the Body weight ([1]; 0.4 mg/kg intragastric 2 times a day, mice bearing KG-1a xenografts) was 20.4 g and 21.0 g and 21.1 g and 21.4 g and 20.8 g and 19.1 g. The Body weight ([1]; 0.4 mg/kg intragastric 2 times a day, mice bearing THP-1 xenografts) was 20.4 g and 21.0 g and 21.1 g and 21.4 g and 20.8 g and 19.1 g, the “anatomical examination of major organs (heart, lung, liver, spleen, large intestine, small intestine)” value ([1]; mice of Example 9) was “no significant abnormalities” and the “level of c-myc (immunoblot)” value (c-myc) was “significantly inhibited”.
